Data on five compounds can be found in patent publication US20180201654A1, “PEPTIDE INHIBITORS OF HAUSP DEUBIQUITINASE” (priority 2012, published 2018).

Read-outs that look alike come from different tables or passages of the source.

The target of assay [1] is T1, HAUSP TRAF domain HAUSP^62-205 (Homo sapiens, UniProt Q93009). It counts as binding. Further details: All residues of HAUSP^62-205, with the exception of Asp^62, are included in the final model; hexahistidine tag (TEV-cleavable) (cleaved yes); made in house; host or cells: E. coli BL21 (DE3) RIPL. The settings on record: for n: ITC binding stoichiometry, 150 mM NaCl, 10 mM HEPES (pH 7.0). The method, then:
FIG. 5. Typical isothermal titration calorimetric measurements of the interactions between the HAUSP TRAF domain and the vIRF4 protein derivatives or other peptides. Purified proteins and synthesized peptides were reconstituted in 150 mM NaCl and 10 mM HEPES (pH 7.0). The calorimetric assays were performed using a VPITC system. All experiments were carried out with a stirring speed of 300 rpm at 20° C., and the thermal power was recorded every 10 s. Data were analyzed using the ORIGIN software package (version 7.0). […] Each titration against the HAUSP TRAF domain is indicated in each panel.
(§1) Purified proteins and synthesized peptides (Peptron Inc., Deajeon, Korea) were reconstituted in 150 mM NaCl and 10 mM HEPES (pH 7.0). The calorimetric assays were performed using a VP-ITC system (MicroCal Inc., Northampton, Mass.). Samples were degassed by vacuum aspiration for 15 min prior to loading. All experiments were carried out with a stirring speed of 300 rpm at 20° C., and the thermal power was recorded every 10 s. Data were analyzed using the ORIGIN software package (version 7.0) supplied with the instrument. […] (SEQ ID NO: 6); EBNA1^435-449, […] (SEQ ID NO: 7); MDM2^137-152, […] […] (SEQ ID NO: 10). Each set of ITC experiments was repeated two or three times.

Assay [2] concerns PEL cells carrying p53 (wt). Description: Apoptosis assay (Annexin V/PI, flow cytometry) in PEL cells. The class given is cell-based, human. The settings on record: 10 μM. The method, then: (§2) FIG. 3a-3g. […] Data are culled from 3 independent experiments.
The proportion of cells at the S phase was determined by measuring incorporation of BrdU and 7-amino-actionomycin D (ADD) into DNA. Cells were grown at a density of 5×10^6 cells/ml indicated periods with the treatment of either peptide or Nutlin-3a. The cells were pulse-labeled with 10 μM BrdU for 30 min. Cells were permeabilized, fixed and BrdU-, 7AAD-stained using the BrdU Flow Kit (BD Pharmingen) according to manufacturer's instructions. Stained cells were analyzed by flow cytometry to determine the cell-cycle distribution on a FACS Scan (BD FACSCanto™ II). Apoptosis was measured by dual-labeling with the Annexin V-FITC Apoptosis Detection kit I (BD biosciences-Pharmingen) according to the manufacturer's instruction and analyzed by Flow Jo software.
Shown is one representative experiment of three. It was shown that vif1/2 peptides cause cell death by apoptosis.
In this respect, BCBL-1 cells were treated with 100 μM of either vif1 or vif2 peptide for the indicated time periods and then subjected to Annexin V and PI staining, followed by FACS analysis. 10 μM Nutlin-3a was used as a positive control.

For assay [3], the system named is primary TKI-resistant Ph^+ and normal ALL cells. Description: Long-term cell culture of TKI-resistant ALL cells. The conditions noted are these: single agent, FIG. 15. It counts as cell-based, human. The text has this: To test whether vif1 and vif2 peptides have killing effect on relapse leukemia, this example chose two different karyotype relapse ALL cells: Ph^+BCR-ABL^T3151 and normal. The T3151 mutation is one of the common mechanism of escape and resistance against all kinds of tyrosine kinase inhibitors (TKIs). After treatment of these peptides into several different relapse ALL cells, this example performed Trypan blue staining to select dead cells in time dependent manner. […] This example next validated the effect of nilotinib/TAT-vif1 (or TAT-vif2) combination on primary TKI-resistance in Ph^+ and normal ALL during long-term cell culture.

The target of assay [4] is T2, HAUSP TRAF domain (Homo sapiens, UniProt Q93009).
T2 construct: All residues of HAUSP^62-205, with the exception of Asp^62, are included in the final model; hexahistidine tag (TEV-cleavable) (cleaved yes); made in house; host or cells: E. coli BL21 (DE3) RIPL
T2 sequence (Q93009 62-205): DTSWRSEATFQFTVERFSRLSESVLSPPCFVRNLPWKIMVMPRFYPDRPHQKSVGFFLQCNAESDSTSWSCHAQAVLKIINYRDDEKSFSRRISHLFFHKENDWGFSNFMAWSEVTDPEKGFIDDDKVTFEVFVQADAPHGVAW
It counts as binding. Here is the method:
FIG. 9. Typical isothermal titration calorimetric measurements of the competitive binding of vIRF4 with TRAF domain against cellular substrates. […] Each competitive titration is indicated in the panel.
as §1
To further gauge the competitive nature of vIRF4 binding, the TRAF domain was incubated with an equal molar amount of vIRF4^153-216 in the presence of a 5-fold molar excess of MDM2^137-152, and the mixture was then analyzed by size exclusion chromatography.

For assay [5], the target named is T3, USP8 (Homo sapiens, UniProt P40818).
T3 sequence (P40818 1-1118): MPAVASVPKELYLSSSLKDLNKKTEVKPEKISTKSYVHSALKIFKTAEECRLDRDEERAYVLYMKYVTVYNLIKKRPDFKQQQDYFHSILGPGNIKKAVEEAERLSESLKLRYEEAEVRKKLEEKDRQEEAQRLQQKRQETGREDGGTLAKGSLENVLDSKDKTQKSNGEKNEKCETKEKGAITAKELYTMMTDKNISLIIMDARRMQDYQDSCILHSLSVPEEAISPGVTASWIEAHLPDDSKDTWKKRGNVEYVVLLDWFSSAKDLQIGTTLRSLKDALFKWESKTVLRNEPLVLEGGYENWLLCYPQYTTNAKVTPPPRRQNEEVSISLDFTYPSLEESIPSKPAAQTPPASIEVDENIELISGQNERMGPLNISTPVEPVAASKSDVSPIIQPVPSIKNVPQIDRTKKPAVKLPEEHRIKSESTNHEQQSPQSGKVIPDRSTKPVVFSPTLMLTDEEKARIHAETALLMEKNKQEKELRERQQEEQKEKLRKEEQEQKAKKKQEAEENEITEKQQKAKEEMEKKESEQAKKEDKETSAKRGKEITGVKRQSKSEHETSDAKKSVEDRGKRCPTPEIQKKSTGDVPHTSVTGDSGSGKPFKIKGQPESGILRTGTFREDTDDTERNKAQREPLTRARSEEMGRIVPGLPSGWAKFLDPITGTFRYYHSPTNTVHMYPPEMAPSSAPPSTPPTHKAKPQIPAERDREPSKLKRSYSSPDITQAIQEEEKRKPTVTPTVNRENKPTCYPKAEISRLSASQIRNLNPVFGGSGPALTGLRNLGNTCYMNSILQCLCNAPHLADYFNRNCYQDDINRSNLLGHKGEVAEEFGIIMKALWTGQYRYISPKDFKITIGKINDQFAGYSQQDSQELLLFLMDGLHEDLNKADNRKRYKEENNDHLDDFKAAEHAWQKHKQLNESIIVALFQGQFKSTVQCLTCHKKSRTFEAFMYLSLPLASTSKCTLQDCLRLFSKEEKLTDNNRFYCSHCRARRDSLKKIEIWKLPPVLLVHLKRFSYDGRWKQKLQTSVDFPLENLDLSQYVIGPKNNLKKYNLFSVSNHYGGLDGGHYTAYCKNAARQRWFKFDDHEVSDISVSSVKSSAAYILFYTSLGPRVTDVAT
The experiment in a line: In vitro deubiquitination assay with purified USP8. The conditions noted are these: 0.25 μM purified USP8 pre-mixed with peptide for 5 min; K48- or K63-linked chains. It counts as biochemical.

Assay [6] has as its system p53, p21, MDM2 and HAUSP levels in PEL cells. The experiment in a line: Western blot of p53 and its transcriptional targets in PEL cells. The class given is cell-based, human. The settings on record: peptide treatment.
Excerpt: as §2
(In general: Immunoblotting shows a protein as a band on a membrane.)

The target of assay [7] is T4, HAUSP (USP7) (Homo sapiens, UniProt Q93009). The experiment in a line: In vitro DUB assay with ubiquitinated MDM2 as substrate. The conditions noted are these: HAUSP preincubated with increasing amounts of peptide; 1 h at 37° C.
T4 sequence (Q93009 whole entry): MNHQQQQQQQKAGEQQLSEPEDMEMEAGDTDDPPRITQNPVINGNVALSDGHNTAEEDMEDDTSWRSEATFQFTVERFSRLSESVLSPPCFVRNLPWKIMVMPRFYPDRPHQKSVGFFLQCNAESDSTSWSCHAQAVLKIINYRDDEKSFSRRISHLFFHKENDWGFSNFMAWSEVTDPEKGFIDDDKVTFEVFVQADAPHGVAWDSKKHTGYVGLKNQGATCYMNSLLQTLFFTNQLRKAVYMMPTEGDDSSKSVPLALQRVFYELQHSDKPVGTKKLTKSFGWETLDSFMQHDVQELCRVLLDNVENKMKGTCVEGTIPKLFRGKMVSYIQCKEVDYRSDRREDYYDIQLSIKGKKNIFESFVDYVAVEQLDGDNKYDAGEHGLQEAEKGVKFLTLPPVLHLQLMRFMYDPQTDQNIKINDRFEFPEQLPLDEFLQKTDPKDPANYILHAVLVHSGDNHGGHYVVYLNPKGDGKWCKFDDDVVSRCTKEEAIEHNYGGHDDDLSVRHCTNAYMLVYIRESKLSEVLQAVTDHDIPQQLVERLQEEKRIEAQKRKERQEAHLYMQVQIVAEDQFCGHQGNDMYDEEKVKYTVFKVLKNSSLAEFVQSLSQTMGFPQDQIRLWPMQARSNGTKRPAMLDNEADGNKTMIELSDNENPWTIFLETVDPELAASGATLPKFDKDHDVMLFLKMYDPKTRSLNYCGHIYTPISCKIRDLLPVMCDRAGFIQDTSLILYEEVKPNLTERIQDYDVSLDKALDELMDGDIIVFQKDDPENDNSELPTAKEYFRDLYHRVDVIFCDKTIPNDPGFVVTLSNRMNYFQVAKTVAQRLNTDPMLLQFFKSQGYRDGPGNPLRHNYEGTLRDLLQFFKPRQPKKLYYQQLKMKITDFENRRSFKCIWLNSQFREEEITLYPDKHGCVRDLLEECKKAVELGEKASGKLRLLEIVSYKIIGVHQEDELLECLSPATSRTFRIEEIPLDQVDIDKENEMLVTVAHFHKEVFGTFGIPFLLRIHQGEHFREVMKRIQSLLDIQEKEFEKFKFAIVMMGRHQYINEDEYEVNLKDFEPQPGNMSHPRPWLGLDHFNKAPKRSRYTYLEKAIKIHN
The target in assay [8] is T4, HAUSP (USP7). The conditions noted are these: time-course, K48-Ub3-7 chains, 37° C.
For assay [9], the target named is T1, HAUSP TRAF domain HAUSP^62-205. Description: Size exclusion chromatography of complex formation in excess MDM2^137-152. It counts as binding. Further details: hexahistidine tag (TEV-cleavable) (cleaved yes); made in house; host or cells: E. coli BL21 (DE3) RIPL. The conditions noted are these: in the presence of a 5-fold molar excess of MDM2^137-152. (Size exclusion chromatography separates by hydrodynamic size, large species first.)

T1 sequence (Q93009 62-205): as the sequence (Q93009 62-205) above

For `C[C@H](NC(=O)[C@@H]1CCCN1C(=O)CNC(=O)[C@H](CCC(N)=O)NC(=O)[C@@H](N)CCC(=O)O)C(=O)N[C@@H](CC(=O)O)C(=O)N[C@@H](CC(=O)O)C(=O)N1CCC[C@H]1C(=O)NCC(=O)N[C@@H](CCC(=O)O)C(=O)NCC(=O)N1CCC[C@H]1C(=O)N[C@@H](CO)C(=O)N[C@H](C(=O)NCC(=O)O)[C@@H](C)O` [EBNA1^435-449, reference compound], in assay [1] (20° C.), the n was 0.81 ± 0.01. In assay [1] (ITC, 20° C., pH 7.0), the Ka is reported as 2.10 ± 0.15 10^6 M^−1, the TΔS was -8.69 kcal/mol, the ΔG is -8.48 kcal/mol and the ΔH is -17.17 ± 0.13 kcal/mol.

Regarding `COc1ccc(C2=N[C@@H](c3ccc(Cl)cc3)[C@@H](c3ccc(Cl)cc3)N2C(=O)N2CCNC(=O)C2)c(OC(C)C)c1` [Nutlin-3a], the cell death entry in assay [2] is “considerable cell death”.

As to `Cc1cn(-c2cc(NC(=O)c3ccc(C)c(Nc4nccc(-c5cccnc5)n4)c3)cc(C(F)(F)F)c2)cn1` [nilotinib], in [3], the “response of refractory ALL cells in long-term culture” value is “did not achieve a therapeutic response”.

Turning to `CC[C@H](C)[C@H](NC(=O)[C@H](Cc1c[nH]c2ccccc12)NC(=O)[C@@H](NC(=O)[C@@H](N)CO)C(C)C)C(=O)N1CCC[C@H]1C(=O)N[C@H](C(=O)N[C@@H](CC(N)=O)C(=O)N[C@@H](CCC(=O)O)C(=O)NCC(=O)N[C@@H](C)C(=O)N[C@@H](CO)C(=O)N[C@H](C(=O)N[C@@H](CO)C(=O)NCC(=O)N[C@@H](CCSC)C(=O)O)[C@@H](C)O)C(C)C` [vIRF4^202-216], the “association constant (Kobs)” value in assay [4] (competitor titrated against MDM2^137-152-bound TRAF) stood at 1.09e+07 M⁻¹; in [4] (competitor titrated against p53^350-364-bound TRAF), 4.42e+07 M⁻¹; in assay [4] (competitor titrated against p53^355-369-bound TRAF), 3.58e+07 M⁻¹. Further, the results for the Kobs in assay [4] (titrated to MDM2^137-152-TRAF), in assay [4] (titrated to p53^350-364-TRAF) and in assay [4] (titrated to p53^355-369-TRAF) were 10.875 ± 1.308 10^6 M^−1, 44.200 ± 4.200 10^6 M^−1 and 35.800 ± 3.400 10^6 M^−1, respectively. Moreover, the ΔHobs was -25.870 ± 0.240 kcal/mol in assay [4] (titrated to MDM2^137-152-TRAF), -19.070 ± 0.194 kcal/mol in assay [4] (titrated to p53^350-364-TRAF) and -19.150 ± 0.203 kcal/mol in assay [4] (titrated to p53^355-369-TRAF). Besides, the “USP8 DUB activity” value in assay [5] is recorded as “can not inhibit”. Besides, the HAUSP levels result in [6] is on record as “Neither vif1 nor vif2 peptide treatment altered”. Besides, the “HAUSP DUB activity against ubiquitinated MDM2” value in assay [7] is “efficiently blocked”. Besides, the “HAUSP DUB activity, comparative kinetic analysis” value in [8] is listed as “weakly attenuated”. Moreover, the “complex formation with the TRAF domain” value in [9] was “formed a stable complex”. Also, the “tighter binding to the TRAF domain compared to the peptides derived from MDM2 and p53” value in [1] (ITC) is 28-40 fold. This compound also showed a n in assay [1] (20° C.) of 0.84 ± 0.01. Further, the TΔS in [1] (ITC, 20° C., pH 7.0) was -10.63 kcal/mol. The ΔG in [1] (ITC, 20° C., pH 7.0) was -8.60 kcal/mol. Also, the ΔH in [1] (ITC, 20° C., pH 7.0) was -19.22 ± 0.05 kcal/mol.

Turning to “TRQVTQASSFTWRVPG (GTRQVTQASSFTWRVPG; Human herpesvirus 8) [vif2]”, the “USP8 DUB activity” value in assay [5] is on record as “can not inhibit”. Further, in assay [6], the HAUSP levels entry is given as “Neither vif1 nor vif2 peptide treatment altered”. For the same compound, the “HAUSP DUB activity against ubiquitinated MDM2” value in assay [7] is given as “efficiently blocked”. The “HAUSP DUB activity, comparative kinetic analysis” value in [8] is “completely suppressed”.
